# Biological target: T1, VcIIPK (Vibrio cholerae, UniProt Q9KQJ0)
# T1 construct: gene VC_2008
# Test: biochemical
# T1 sequence (Q9KQJ0 1-481 limits assumed): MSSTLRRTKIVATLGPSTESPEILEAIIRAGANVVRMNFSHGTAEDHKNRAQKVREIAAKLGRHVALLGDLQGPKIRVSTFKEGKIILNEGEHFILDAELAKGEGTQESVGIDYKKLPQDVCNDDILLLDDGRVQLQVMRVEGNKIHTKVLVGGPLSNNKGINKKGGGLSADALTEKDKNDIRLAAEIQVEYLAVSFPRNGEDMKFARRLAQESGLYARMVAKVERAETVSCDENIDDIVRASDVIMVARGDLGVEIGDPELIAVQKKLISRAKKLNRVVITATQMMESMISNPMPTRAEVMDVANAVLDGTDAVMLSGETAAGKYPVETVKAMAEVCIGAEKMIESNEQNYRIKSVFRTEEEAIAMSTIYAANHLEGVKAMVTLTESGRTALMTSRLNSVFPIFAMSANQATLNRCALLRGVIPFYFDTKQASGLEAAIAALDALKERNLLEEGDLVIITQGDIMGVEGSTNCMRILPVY
smiles,measurement,value
O=C(O)C(=O)O [oxalate],Ki,71 ± 6 µM

# From PMC5501398 (PLoS ONE, 2017)
